Assay [1] addresses T1, HoblCSP2 (Holotrichia oblita, UniProt G9BWQ6). Description: Fluorescence binding of 1-NPN to HoblCSP2 (binding curve, Scatchard plot). Particulars: 2 µM protein; 1-NPN 2∼24 µM; read-out: dissociation constant of CSP2/1-NPN. The protocol: (§1) Fluorescence binding assay was based on method previously described by Yin et al.. Briefly, fifty compounds (Sigma-Aldrich, Germany) with chemical purities ≥97% were tested in a Lengguang 970 CRT spectrofluorimeter (Shanghai Jingmi, China). Assuming the proteins were 100% active, the binding affinities for N-phenyl-1-naphthylamine (1-NPN) were determined by adding aliquots of 1-NPN into a 2 µM protein solution for final concentrations of 2∼24 µM. The dissociation constants of the binding competitors were calculated from IC50 according to Campanacci et al: Ki = [IC50]/(1+[1-NPN]/K(1-NPN)), where [1-NPN] represents the concentration of unbound 1-NPN and K(1-NPN) is the dissociation constant of 1-NPN [46]. Binding data for each ligand was collected from 3 measurements.
(§2) Figure 3 Fluorescence competition assay of the recombinant HoblCSP1 and HoblCSP2. (A) Binding curves of 1-NPN with HoblCSP1 and HoblCSP2 and their relative Scatchard plots. The dissociation constant of HoblCSP1 is 2.53 µM and that of HoblCSP2 is 2.93 µM. (B) Representative competitive binding curves of the recombinant HoblCSP1 to a series selected ligands (see Table 1). […] Fluorescence intensities are plotted as percent of the initial fluorescence in the absence of ligands. […]

For assay [2], the target named is T2, HoblCSP1 (Holotrichia oblita, UniProt G9BWI4). Description: Fluorescence binding of 1-NPN to HoblCSP1 (binding curve, Scatchard plot). To be noted: 2 µM protein; 1-NPN 2∼24 µM; read-out: dissociation constant of CSP1/1-NPN. The method, then:
as §1, §2

The target in assay [3] is T2, HoblCSP1. Briefly: Fluorescence competition assay with 1-NPN, recombinant HoblCSP1. It counts as binding. To be noted: for binding affinity to HoblCSP1, in words: competition assay. The protocol:
(§3) Fluorescence binding assay was based on method previously described by Yin et al.. Briefly, fifty compounds (Sigma-Aldrich, Germany) with chemical purities ≥97% were tested in a Lengguang 970 CRT spectrofluorimeter (Shanghai Jingmi, China). […] Binding data for each ligand was collected from 3 measurements.
(§4) Figure 3 Fluorescence competition assay of the recombinant HoblCSP1 and HoblCSP2. (A) Binding curves of 1-NPN with HoblCSP1 and HoblCSP2 and their relative Scatchard plots. […] (B) Representative competitive binding curves of the recombinant HoblCSP1 to a series selected ligands (see Table 1). All proteins used were diluted to a fixed concentration of 2 µM, while the concentration of 1-NPN varied with the respective dissociation constant of HoblCSPs/1-NPN. […] Fluorescence intensities are plotted as percent of the initial fluorescence in the absence of ligands. The molecular formulas of representative ligands are shown here as well.

The target of assay [4] is T1, HoblCSP2. Briefly: Fluorescence competition assay with 1-NPN, recombinant HoblCSP2. Particulars: for binding affinity to HoblCSP2, in words: competition assay. The class given is binding. The protocol:
as §3, §4

For a further assay, the system named is H.oblita. More on the design: method as in earlier work. Particulars: cited from earlier work.
The subject of another assay is H.oblita antennae. Details: method as in PMID 21852709. Particulars: cited from earlier work.
The subject of the next assay is AgamCSP3. Details: method as in PMID 23599217. To be noted: cited from earlier work.
Where [5] appears, read: competition with 1-NPN, 2 µM protein, ligand 0–28 µM, Ki calculated from IC50, 3 measurements, read-out: HoblCSP1 Ki.
[6] abbreviates: competition with 1-NPN, 2 µM protein, ligand 0–28 µM, Ki calculated from IC50, 3 measurements, read-out: HoblCSP2 Ki.

Values joined by “and” are separate entries in the source; they are usually repeats but may differ in a detail not shown here. Equal values may be shown once. “Also recorded” adds a separate entry of the source. Read-outs that look alike come from different tables or passages of the source.

The source of these data is article PMC4154846, “Functional Characterization of Chemosensory Proteins in the Scarab Beetle, Holotrichia oblita Faldermann (Coleoptera: Scarabaeida)” (PLoS ONE, 2014).

T1 sequence (G9BWQ6 entry or part of it): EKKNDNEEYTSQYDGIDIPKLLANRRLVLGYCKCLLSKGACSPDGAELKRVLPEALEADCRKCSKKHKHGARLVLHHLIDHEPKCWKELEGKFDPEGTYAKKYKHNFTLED
T2 sequence (G9BWI4 entry or part of it): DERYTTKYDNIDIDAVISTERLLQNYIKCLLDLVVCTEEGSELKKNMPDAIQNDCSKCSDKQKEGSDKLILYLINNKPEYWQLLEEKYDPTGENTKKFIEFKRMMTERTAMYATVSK

For `c1ccc(Nc2cccc3ccccc23)cc1` [1-NPN, N-phenyl-1-naphthylamine], the Kd on HoblCSP2 [1] stood at 2.93 µM; at HoblCSP1 [2], 2.53 µM.

On to `C=CC(O)CCCCC` (centres unmarked) [1-Octen-3-ol], for which the Ki (as a rule, a dissociation constant, usually derived from enzyme kinetics or from competition with a known ligand) on HoblCSP1 [3] (setting [5]) was 48.1 µM.

With `CCCCCCCCO` [1-octanol], the Ki on HoblCSP1 [3] (setting [5]) was 35.9 µM; on HoblCSP2 [4] (setting [6]), 40.6 µM.

Consider `CCCCC(CC)CO` (centres unmarked) [2-Ethy1-1-Hexanol], for which the Ki on HoblCSP1 [3] (setting [5]) is 29.9 µM; at HoblCSP2 [4] (setting [6]) it was 32.1 µM.

On to `CC(C)(C)C1CCC(O)CC1` (centres unmarked) [4-tert-butylcyclohexanol], for which the values for the inhibition constant Ki at HoblCSP1 [3] (setting [5]) and at HoblCSP2 [4] (setting [6]) were 34.6 µM and 50.7 µM, respectively.

As to `CC(=O)CCC=C(C)C` [6-Methyl-5-hepten-2-one], at HoblCSP2 [4], the Ki was 56.9 µM and the “binding affinity to HoblCSP2, in words” value is on record as “higher affinities”.

Turning to `CCOC(=O)CN` [Glycine ethyl ester], at HoblCSP1 [3], the “binding affinity to HoblCSP1, in words” value is “limited affinities”. For the same compound, the Ki at HoblCSP1 [3] (setting [5]) is 43.5 µM; on HoblCSP2 [4] (setting [6]), 39.5 µM. The “binding affinity to HoblCSP2, in words” value at HoblCSP2 [4] was “limited affinities”.

For the compound `CC[C@H](C)[C@H](N)C(=O)OC` [L-Isoleucine methyl este], the “binding affinity to HoblCSP1, in words” value at HoblCSP1 [3] is “limited affinities”. For the same compound, at HoblCSP2 [4], the “binding affinity to HoblCSP2, in words” value was “limited affinities”.

On to `COC(=O)[C@@H]1CCCN1` [L-Proline methyl ester], for which, at HoblCSP1 [3], the “binding affinity to HoblCSP1, in words” value was “limited affinities”. Also, the Ki at HoblCSP1 [3] (setting [5]) is 57 µM. The “binding affinity to HoblCSP2, in words” value at HoblCSP2 [4] is reported as “limited affinities”.

Regarding `COc1ccccc1` [anisole], the Ki is 28.4 µM at HoblCSP1 [3] (setting [5]) and 29.5 µM at HoblCSP2 [4] (setting [6]).

Turning to `O=Cc1ccccc1` [benzaldehyde], on HoblCSP1 [3], the Ki amounted to 23.3 µM and the “binding affinity to HoblCSP1, in words” value is “medium affinities”. At HoblCSP2 [4], the Ki came out at 19.5 µM and the “binding affinity to HoblCSP2, in words” value is recorded as “medium affinities”.

As for `OCc1ccccc1` [benzyl alcohol], the Ki on HoblCSP1 [3] came out at 34.9 µM; at HoblCSP2 [4], 54.8 µM.

For `C=C1C2CCC(C2)C1(C)C` (centres unmarked) [camphene], the “binding affinity to HoblCSP1, in words” value on HoblCSP1 [3] was “able to bind camphene, albeit with a high Ki value”. Also, the inhibition constant (Ki) on HoblCSP1 [3] (setting [5]) is 37.9 µM. At HoblCSP2 [4], the “binding affinity to HoblCSP2, in words” value was “could not bind camphene at all”.

`O=C/C=C/c1ccccc1` [cinnamaldehyde]: at HoblCSP1 [3], the Ki came to 20.5 µM and the “binding affinity to HoblCSP1, in words” value is listed as “highest affinities”. Moreover, the “attraction to H.oblita” value in the assay on H.oblita was “great attraction”. The “electrophysiological response in H.oblita antennae (EAG)” value in the assay with H.oblita antennae is given as “strong electrophysiological responses”. Besides, at HoblCSP2 [4], the Ki amounted to 17.5 µM and the “binding affinity to HoblCSP2, in words” value was “highest affinities”.

As for `CC/C=C\CCO` [cis-3-hexen-1-ol], the Ki on HoblCSP1 [3] (read-out: HoblCSP1 Ki, competition with 1-NPN, 2 µM protein, ligand 0–28 µM, Ki calculated from IC50, 3 measurements) is 46.9 µM; at HoblCSP2 [4] (read-out: HoblCSP2 Ki, competition with 1-NPN, 2 µM protein, ligand 0–28 µM, Ki calculated from IC50, 3 measurements), 47.8 µM and 35.7 µM. The “binding affinity to HoblCSP2, in words” value on HoblCSP2 [4] was “higher affinities”.

For the compound `CC(C)=CCC[C@@H](C)CC=O` [citronellal], the “best ligands for AgamCSP3” value in the assay with AgamCSP3 is on record as “best ligands”.

As for `COC(=O)c1ccccc1C(=O)OC` [dimererhyl phthalate], the “binding affinity to HoblCSP1, in words” value at HoblCSP1 [3] is recorded as “higher affinities”. Further, the Ki at HoblCSP1 [3] (setting [5]) was 22.3 µM.

As to `C=CCc1ccc(O)c(OC)c1` [eugenol], on HoblCSP1 [3], the Ki came to 30 µM and the “binding affinity to HoblCSP1, in words” value is “higher affinities”.

Take `CC(C)=CCC/C(C)=C/CO` [geraniol]: on HoblCSP1 [3], the inhibition constant Ki turned out to be 29.5 µM and the “binding affinity to HoblCSP1, in words” value is on record as “medium affinities”. In addition, at HoblCSP2 [4], the Ki was 30.2 µM and the “binding affinity to HoblCSP2, in words” value is on record as “medium affinities”.

For `CCCCCCO` [hexanol], the values for the Ki at HoblCSP1 [3] (setting [5]) and at HoblCSP2 [4] (setting [6]) were 57.6 µM and 60.5 µM, respectively.

With `COC(=O)c1ccccc1O` [methyl salicylate], at HoblCSP1 [3], the Ki is 47.3 µM and the “binding affinity to HoblCSP1, in words” value is “higher affinities”.

As for `C=CC(=C)CCC=C(C)C` [myrcene], on HoblCSP1 [3], the “binding affinity to HoblCSP1, in words” value is listed as “medium affinities”. Also, the Ki on HoblCSP1 [3] (setting [5]) is 25.4 µM; at HoblCSP2 [4] (setting [6]), 29.5 µM. Besides, the “binding affinity to HoblCSP2, in words” value at HoblCSP2 [4] is listed as “medium affinities”.

For the compound `CCCCCCCCC=O` [nonanal], in the assay on AgamCSP3, the “best ligands for AgamCSP3” value is “best ligands”.

Regarding `CC1=C(/C=C/C(C)=C/C=C/C(C)=C/C=O)C(C)(C)CCC1` [retinal], the “best ligands for AgamCSP3” value with AgamCSP3 is given as “best ligands”.

On to `CCC/C=C/C=O` [trans-2-hexenal], for which, at HoblCSP1 [3], the inhibitory constant (Ki) came out at 24.9 µM and the “binding affinity to HoblCSP1, in words” value is “medium affinities”. For the same compound, on HoblCSP2 [4], the Ki is 25.7 µM and the “binding affinity to HoblCSP2, in words” value is recorded as “medium affinities”.

In the case of `CC1=CC[C@@H](C(C)(C)O)CC1` [α -terpineol], the values for the Ki on HoblCSP1 [3] (setting [5]) and on HoblCSP2 [4] (setting [6]) were 46.8 µM and 39.4 µM, respectively.

On to `CC(=O)/C=C/C1C(C)=CCCC1(C)C` (stereo not drawn) [α-ionone], for which, at HoblCSP1 [3], the Ki was 10.5 µM and the “binding affinity to HoblCSP1, in words” value was “highest affinities”. Moreover, in the assay on H.oblita antennae, the “electrophysiological response in H.oblita antennae (EAG)” value is listed as “strong electrophysiological responses”. In addition, at HoblCSP2 [4], the Ki came out at 11.5 µM and the “binding affinity to HoblCSP2, in words” value was “highest affinities”.

Take `CC(=O)/C=C/C1=C(C)CCCC1(C)C` [β-ionone]: at HoblCSP1 [3], the Ki was 4.3 µM and the “binding affinity to HoblCSP1, in words” value was “bound most strongly; also recorded: highest affinities; also recorded: best ligand”. On HoblCSP2 [4], the Ki was 4.47 µM and the “binding affinity to HoblCSP2, in words” value is given as “bound most strongly; also recorded: highest affinities”.
